Where a name gives a salt, the structure may show the parent alone.
Molecular target: type IV phosphodiesterase
Assay: Type IV phosphodiesterase inhibiting activity
Type: biochemical, human
Details: U937 type IV phosphodiesterase fraction, 0.28 μM cAMP, pH 7.5, 30° C., 30 minutes; read-out: PDEIV-IC50
Protocol: The following assay was used to evaluate the ability of the compound of the present invention to suppress type IV phosphodiesterase, according to Biochemical. Pharmacol. 48 (6), 1219-1223 (1994).
1) Type IV phosphodiesterase activity fractions were prepared as follows. Namely, human histiocytic lymphoma cell line U937 was cultured in an RPMI1640 medium containing 10% fetal calf serum to obtain 10^9 cells of U937. The cells were recovered by centrifugation and suspended in 40 ml of buffer A (20 mM bis-tris, 5 mM 2-mercaptoethanol, 2 mM benzamidine, 2 mM EDTA, 0.1 mM 4-(2-aminoethyl)benzensulfonyl hydrochloride, 50 mM sodium acetate, pH=6.5). The cells were broken by a sonication and centrifuged (4° C., 10,000 G, 10 minutes) to obtain a supernatant. This was filtered by a 0.45 μm filter to obtain the soluble fraction.
2) The soluble fraction obtained was applied into a 1×10 cm DEAE Sepharose column equalibrated with the buffer A. 120 ml of the buffer A containing a linear gradient solution of 0.05 to 1M sodium acetate was used to separate the phosphodiesterase and recover 24 5-ml fractions. Each of the fractions was measured for the cAMP phosphodiesterase activity.
3) The test compound was reacted at a desired concentration in a reaction mixture containing 20 mM tris-HCl (pH 7.5), 1 mM MgCl2, 100 μM EDTA, 330 μg/ml calf serum albumin, 10 μg/ml 5'-nucleotidase, 0.4 μCi ^3 H-cAMP (0.28 μM cAMP) and the type IV phosphodiesterase stored solution at 30° C. for 30 minutes. QAE-Sephadex suspended in 10 mM of hepes-Na (pH -7.0) was added to the reaction mixture which was then allowed to stand for 5 minutes, then the supernatant was obtained, QAE-Sephadex was further added, to the supernatant, and was allowed to stand for 5 minutes, then the supernatant was obtained and measured for radioactivity.

SMILES | IC50 [nM]
COC(=O)N1CCC(n2cc(C(=O)Nc3c(Cl)cccc3Cl)c(=O)c3cccnc32)C1 (racemic) [Example 4, (±)-N-(2,6-dichlorophenyl)-1-(1-methoxycarbonylpyrrolidin-3-yl)-1,4-dihydro[1,8]naphthyridin-4-one-3-carboxamide] | 60
O=C(Nc1ccncc1)c1cn([C@@H]2CCOC2)c2ncccc2c1=O [Example 38, N-(4-pyridyl)-1-[(R)-tetrahydro-3-furanyl]-1,4-dihydro[1,8]naphthylidin-4-one-3-carboxamide] | 330
O=C1CCC(n2cc(C(=O)Nc3ccncc3)c(=O)c3cccnc32)CC1 [Example 61, N-(4-pyridyl)-1-(4-oxocyclohexyl)-1,4-dihydro[1,8]naphthylidin-4-one-3-carboxamide] | 180
O=C(Nc1ccncc1)c1cn([C@H]2CC[C@@H](O)CC2)c2ncccc2c1=O [Example 115, N-(4-pyridyl)-1-(cis-4-hydroxycyclohexyl)-1,4-dihydro[1,8]naphthylidin-4-one-3-carboxamide] | 210
CN1CCN(Cc2ccc(C(=O)O[C@H]3CC[C@H](n4cc(C(=O)Nc5c(Cl)cncc5Cl)c(=O)c5cccnc54)CC3)cc2)CC1 [Example 133, trans-4-[3-{[(3,5-dichloro-4-pyridinyl)amino]carbonyl}-4-oxo[1,8]naphthylidin-1(4H)-yl]cyclohexyl 4-[(4-methylpiperazino)methyl]benzoate dihydrochloride] | 7.3
O=C(O[C@H]1CC[C@H](n2cc(C(=O)Nc3c(Cl)cncc3Cl)c(=O)c3cccnc32)CC1)c1ccc(CN2CCOCC2)cc1 [Example 135, trans-4-[3-{[(3,5-dichloro-4-pyridinyl)amino]carbonyl}-4-oxo[1,8]naphthylidin-1(4H)-yl]cyclohexyl 4-(morpholinomethyl)benzoate hydrochloride] | 4.5
O=C(Nc1ccncc1)c1cn(C2CCC2)c2ncccc2c1=O [Example 144, N-(4-pyridyl)-1-cyclobutyl-1,4-dihydro[1,8]naphthylidin-4-one-3-carboxamide] | 120
O=C(Nc1cccnc1)c1cn(C2CC2)c2ncccc2c1=O [Example 156, N-(3-pyridyl)-1-cyclopropyl-1,4-dihydro[1,8]naphthylidin-4-one-3-carboxamide] | 150
Cc1cnccc1NC(=O)c1cn(C2CC2)c2ncccc2c1=O [Example 157, N-(3-methylpyridin-4-yl)-1-cyclopropyl-1,4-dihydro[1,8]naphthylidin-4-one-3-carboxamide] | 130
CCN(CC)Cc1ccc(C(=O)O[C@H]2CC[C@H](n3cc(C(=O)Nc4c(Cl)cncc4Cl)c(=O)c4cccnc43)CC2)cc1 [Example 159, trans-4-[3-{[(3,5-dichloro-4-pyridinyl)amino]carbonyl}-4-oxo[1,8]naphthylidin-1(4H)-yl]cyclohexyl 4-(diethylaminomethyl)benzoate hydrochloride] | 4
O=C(O[C@H]1CC[C@H](n2cc(C(=O)Nc3c(Cl)cncc3Cl)c(=O)c3cccnc32)CC1)c1cccc(CN2CCOCC2)c1 [Example 162, trans-4-[3-{[(3,5-dichloro-4-pyridinyl)amino]carbonyl}-4-oxo[1,8]naphthylidin-1(4H)-yl]cyclohexyl 3-(morpholinomethyl)benzoate hydrochloride] | 6
O=C(NC1CCC1)c1cn([C@H]2CC[C@H](O)CC2)c2ncccc2c1=O [Example 164] | 400
O=C(NC1CCCC1)c1cn([C@H]2CC[C@H](O)CC2)c2ncccc2c1=O [Example 168, N-cyclopentyl-1-(trans-4-hydroxycyclohexyl)-1,4-dihydro[1,8]naphthylidin-4-one-3-carboxamide] | 1500
O=C(NC1CC1)c1cn([C@H]2CC[C@H](O)CC2)c2ncccc2c1=O [Example 170, N-cyclopropyl-1-(trans-4-hydroxycyclohexyl)-1,4-dihydro[1,8]naphthylidin-4-one-3-carboxamide] | 990

The remaining lines, values ahead:

IC50 [nM] | SMILES
2.3 | CCOC(=O)N1CCC(n2cc(C(=O)Nc3c(Cl)cncc3Cl)c(=O)c3cccnc32)CC1 [Example 62, N-(3,5-dichloropyridin-4-yl)-1-(1-ethoxycarbonylpiperidin-4-yl)-1,4-dihydro[1,8]naphthylidin-4-one-3-carboxamide]
210 | N[C@H]1CC[C@H](n2cc(C(=O)Nc3c(Cl)cncc3Cl)c(=O)c3cccnc32)CC1 [Example 69, N-(3,5-dichloropyridin-4-yl)-1-(trans-4-aminocyclohexyl)-1,4-dihydro[1,8]naphthylidin-4-one-3-carboxamide acetate]
3.9 | CC(=O)N[C@H]1CC[C@H](n2cc(C(=O)Nc3c(Cl)cncc3Cl)c(=O)c3cccnc32)CC1 [Example 70, N-(3,5-dichloropyridin-4-yl)-1-[trans-4-(acetylamino)cyclohexyl]-1,4-dihydro[1,8]naphthylidin-4-one-3-carboxamide]
0.5 | CCNC(=O)N[C@H]1CC[C@H](n2cc(C(=O)Nc3c(Cl)cncc3Cl)c(=O)c3cccnc32)CC1 [Example 71, N-(3,5-dichloropyridin-4-yl)-1-[trans-4-(ethylaminocarbonylamino)cyclohexyl]-1,4-dihydro[1,8]naphthylidin-4-one-3-carboxamide]
110 | CS(=O)(=O)N[C@H]1CC[C@H](n2cc(C(=O)Nc3c(Cl)cncc3Cl)c(=O)c3cccnc32)CC1 [Example 72, N-(3,5-dichloropyridin-4-yl)-1-[trans-4-(methanesulfonylamino)cyclohexyl]-1,4-dihydro[1,8]naphthylidin-4-one-3-carboxamide]
1.2 | O=C(Nc1c(Cl)cncc1Cl)c1cn([C@@H]2CC[C@@H](O)C2)c2ncccc2c1=O [Example 79, N-(3,5-dichloropyridin-4-yl)-1-[(1R,3R)-3-(hydroxy)cyclopentyl]-1,4-dihydro[1,8]naphthylidin-4-one-3-carboxamide]
1.3 | CC(=O)O[C@H]1CC[C@@H](n2cc(C(=O)Nc3c(Cl)cncc3Cl)c(=O)c3cccnc32)CC1 [Example 118]
5.7 | CC(C)(C)C(=O)O[C@H]1CC[C@H](n2cc(C(=O)Nc3c(Cl)cncc3Cl)c(=O)c3cccnc32)CC1 [Example 128, trans-4-[3-{[(3,5-dichloro-4-pyridinyl)amino]carbonyl}-4-oxo[1,8]naphthylidin-1(4H)-yl]cyclohexylpivalate]
9.3 | CCC(=O)O[C@H]1CC[C@H](n2cc(C(=O)Nc3c(Cl)cncc3Cl)c(=O)c3cccnc32)CC1 [Example 129, trans-4-[3-{[(3,5-dichloro-4-pyridinyl)amino]carbonyl}-4-oxo[1,8]naphthylidin-1(4H)-yl]cyclohexylpropionate]
50 | O=C(O[C@H]1CC[C@H](n2cc(C(=O)Nc3c(Cl)cncc3Cl)c(=O)c3cccnc32)CC1)c1ccccc1 [Example 130, trans-4-[3-{[(3,5-dichloro-4-pyridinyl)amino]carbonyl}-4-oxo[1,8]naphthylidin-1(4H)-yl]cyclohexylbenzoate]
8.3 | O=C(Nc1c(Cl)cncc1Cl)c1cn(C2CCC2)c2ncccc2c1=O [Example 145, N-(3,5-dichloropyridin-4-yl)-1-cyclobutyl-1,4-dihydro[1,8]naphthylidin-4-one-3-carboxamide]
0.3 | O=C(Nc1c(Cl)cncc1Cl)c1cn(C2CCCC2)c2ncccc2c1=O [Example 150, N-(3,5-dichloropyridin-4-yl)-1-cyclopentyl-1,4-dihydro[1,8]naphthylidin-4-one-3-carboxamide]
